The target in data set [1] is T1, α-thrombin (Homo sapiens, UniProt P00734). The experiment in a line: SPR, peptides passed over immobilized thrombin. It is filed as binding. Particulars: thrombin amine-coupled on CM5 chip; peptides 0-50 nM; single cycle; compared with biotinylated XC-43 surface. On the procedure:
Evaluation of binding kinetics by SPR was performed using a Biacore T200 instrument. Synthetic XC-43 containing covalently linked biotin at the N-terminal amino group and the ε-amino group of Lys 1 was bound to a surface of immobilized neutravidin on a CM-5 chip. After conditioning, human α-thrombin was passed over the surface, and kinetic data were collected in single cycle mode using a running buffer of 10 mM HEPES pH 7.4, 150 mM NaCl (HBS). The data were fit to a 1:1 Langmuir binding model. Binding was also analyzed after immobilization of α-thrombin on a CM-5 chip using amine coupling methodology. XC-42 and XC-43 were passed over the surface, and data were collected in the single cycle mode using HBS as a running buffer. The data were fit to a 1:1 binding model as described above.
Figure S2: Surface pl asmon resonanc e in the single cycle mode of (A) XC -42 or (B) XC-43 binding to thrombin immobilized on a CM5 chip surface. Exp erimental data are shown as a solid grey line while the calculated fit is shown as a dashed line (C) Th e kinetic param eters w ere estimated by fitting a 1:1 binding model. Peptide concentrations for each experiment were, 0 nM, 6.25 nM, 12.5 nM, 25 nM, 50 nM.
(§1) (1 picture or pasted object on this page, not shown here)

The target in data set [2] is thrombin (Homo sapiens, UniProt P00734). The data set can be described thus: Cleavage of peptides by thrombin in solution, measured by mass spectrometry. It is filed as in vitro ADME. Particulars: 25 μM peptide, 1 μM thrombin (25:1); 2 h at 37 °C; 25 mM Tris-HCl pH 8.0, 150 mM NaCl; ESI-MS. On the procedure: To detect cleavage of XC-42 and XC-43 by thrombin in solution, we incubated each peptide separately at a concentration of 25 μM in the presence of thrombin (1 μM) in 25 mM Tris-HCl pH 8.0 containing 150 mM NaCl for 2 h at 37 °C. Reactions were stopped by adjusting the pH to 2.0 with the addition of TFA. A Q Exactive plus (Thermo Fisher Scientific) mass spectrometer was used to carry out ESI-MS experiments. The instrument was operated at a resolution of 280k, spray voltage of 3.5 kV, and capillary temperature of 250 °C. Samples were desalted by C18 Zip-tip (Millipore) and dissolved in 200 μl of reconstitution buffer (50% acetonitrile, 49% water, 1% TFA). Samples were introduced using a syringe pump (Thermo Fisher Scientific) with a flow rate of 5 μl/min. Xtract was used to deconvolute the raw data.

The test system of data set [3] is Wistar rats. The data set can be described thus: Tail bleeding assay. It is filed as in vivo. As to conditions: rat; for increased tail bleeding vs PBS-injected animals: 30 min posttreatment, absorbance 540 nm. How it is done:
The tail bleeding assay was performed with 24 animals kept at 37 °C under general anesthesia with isoflurane vaporized in 100% oxygen at a dose of 5% for induction and 2% for maintenance (flow rate of 0.5 l/min). These animals were randomly distributed into four groups (n = 6 per group) and injected intraperitoneally (300 μl) with: (i) PBS; (ii) heparin (50 μg/kg); (iii) XC-43 (0.5 mg/kg); or (iv) XC-43 (1 mg/kg). After 30 min posttreatment, a medium depth incision was performed at 3 mm from the tip of the animals' tail; the tail was submerged in a test tube containing saline solution (4 ml) and maintained for 30 min. Then, samples from saline solution were appropriately diluted and the absorbance at 540 nm was determined spectrophotometrically.

Data set [4] has as its target T1, α-thrombin. The experiment in a line: Kinetic assay of thrombin-catalyzed hydrolysis of S-2238 (Morrison equation). It is filed as biochemical. Also on record: Kinetic assays were performed using human α-thrombin (Enzyme Research Laboratories); purchased Enzyme Research Laboratories. As to conditions: summary statement in the abstract; fast, tight-binding inhibitor; read-out: dissociation constant for thrombin (abstract). On the procedure: All reactions were performed at 30 °C. Kinetic assays were performed using human α-thrombin (Enzyme Research Laboratories) and chromogenic substrate S-2238 (Diapharma) using a Thermomax micro plate reader (Molecular Devices). Reactions were performed in 100 μl of TBS buffer (10 mM Tris, 0.15 M NaCl, pH 7.4) containing 0.01% Tween-20. XC-43 (0–3.2 nM) or 0 to 15 pairs of X.cheopis salivary glands were incubated with human α-thrombin (0.2 nM) at 30 °C for 5 min followed by addition of S-2238 (50, 100, 200, 400, and 600 μM). Reactions were followed for 30 min. The inhibitory constants were determined by fitting the nonlinear regression model according to the Morrison’s equation ([43]) using the GraphPad Prism software (GraphPad Software, Inc).

In data set [5] the target is T1, α-thrombin. The data set can be described thus: Isothermal titration calorimetry. Also noted: Kinetic assays were performed using human α-thrombin (Enzyme Research Laboratories); purchased Enzyme Research Laboratories. As to conditions: using a maximum c value of 500; single binding site; read-out: KD, ITC bound. On the procedure:
Isothermal titration calorimetric experiments were performed with a Microcal VP-ITC instrument at 30 °C. Human α-thrombin and XC-43 were dissolved in PBS, pH 7.4 at concentrations of 1 μM and 10 μM, respectively. XC-43 was added as 10-μl injections to the protein sample contained in the calorimeter cell. Calculated injection enthalpies were fit to a single-site binding model in the Microcal data evaluation software.
Figure S3: Analysis of XC-43 binding with thrombin using isothermal titration calorimetry. XC-43 (10 µM) was added to a solution of thrombin (1 µM) in a series of 10 µl injections. Heats were record ed on a VP -IT C MicroCalorimeter and the data fitted using a singl e binding site model. The high affinity makes the magnitude […]
association constant (K) must be ≥ 5 × 10 8 M −1 ( KD ≤ 2 nM ) with a single peptide binding site per thrombin […]
as §1

Data set [6] relates to α-thrombin. The data set can be described thus: thrombin (1 μM) in 25 mM Tris-HCl pH 8.0 containing 150 mM NaCl. As to conditions: human, 37 °C, up to 2 h.
For data set [7], the system named is α-thrombin. The data set can be described thus: XC-43-thrombin complex assembled in 10 mM HEPES pH 7.4, crystallized in 0.2 M magnesium acetate, 9% PEG 8000 (measured pH ∼ 7). As to conditions: human, room temperature.
Data set [8] has as its system Wistar rats. The data set can be described thus: Ex vivo aPTT of plasma from treated rats. As to conditions: rat; heparin 50 μg/kg intraperitoneal; 2 and 12 h posttreatment. In kind it is in vivo. On the procedure: A total number of 24 animals were randomly distributed into four groups (n= 6 per group) and injected intraperitoneally (300 μl) with: (i) PBS; (ii) heparin (50 μg/kg); (iii) XC-43 (0.5 mg/kg); or (iv) XC-43 (1.0 mg/kg). Animals were anesthetized with isoflurane (5% for induction; 2% for maintenance) and blood samples were obtained at 0, 2, 12, and 24 h posttreatment in 1:10 (v/v) 3.8% trisodium citrate. The PPP was obtained by blood centrifugation (1500g for 10 min) and the aPTT evaluated using the APTT ellagic kit (Wiener Lab). Clot formation was monitored at 650 nm using a SpectraMax M3 (Molecular Devices).

“Also recorded” adds a separate entry of the source. A value given as a limit tells only on which side of the number the result lay.

Turning to `CC[C@H](C)[C@H](NC(=O)[C@@H]1CCCN1C(=O)[C@H](CCC(=O)O)NC(=O)[C@H](CCSC)NC(=O)CNC(=O)[C@H](CC(N)=O)NC(=O)CNC(=O)CNC(=O)[C@H](CCC(=O)O)NC(=O)CNC(=O)[C@H](CCCNC(=N)N)NC(=O)[C@H](CCC(N)=O)NC(=O)[C@H](Cc1ccc(O)cc1)NC(=O)[C@H](CC(C)C)NC(=O)[C@H](CCCCN)NC(=O)[C@@H]1CCCN1C(=O)[C@H](CCC(N)=O)NC(=O)[C@H](C)NC(=O)[C@@H](NC(=O)[C@H](CCC(=O)O)NC(=O)[C@H](C)NC(=O)[C@H](CCC(=O)O)NC(=O)[C@@H](NC(=O)[C@@H]1CCCN1C(=O)[C@@H](N)CCCCN)C(C)C)C(C)C)C(=O)N1CCC[C@H]1C(=O)N[C@@H](CCC(=O)O)C(=O)N[C@@H](CC(=O)O)C(=O)N[C@H](C(=O)N[C@@H](CC(C)C)C(=O)N[C@@H](CC(N)=O)C(=O)N[C@@H](CCC(=O)O)C(=O)N[C@@H](C)C(=O)N[C@@H](CC(C)C)C(=O)N[C@@H](CC(N)=O)C(=O)N[C@@H](C)C(=O)O)C(C)C` [XC-43], in data set [1], the “dissociation constants on immobilized thrombin, SPR (in words)” value is listed as “elevated dissociation constants”. In data set [2], the “cleavage by thrombin in solution (in words)” value is “majority of the peptide was uncleaved; also recorded: largely intact; also recorded: cleaved to a relatively small degree”. In addition, the “cleavage fragment ion intensity relative to that of the uncleaved peptide” value in data set [2] was “less than 15%”. Besides, the “increased tail bleeding vs PBS-injected animals” value in data set [3] (0.5 mg/kg intraperitoneal) was determined as 3.2 fold; in data set [3] (1 mg/kg intraperitoneal) it was 7.6 fold. Moreover, the “increased tail bleeding vs heparin-treated animals” value in data set [3] (1 mg/kg intraperitoneal, heparin 50 μg/kg) is 2.3 fold. Also, the Kd is below 0.01 nM in data set [4] and at most 2 nM in data set [5].

Turning to “KPVEAEVAQSNLDECEVEAEVAQPKLYQRGEGGNGMEPIPEDVLNEALNA”, the fragment found result in data set [6] was “LYQRGEGGNGMEPIPEDVLNEALNA”.

With KPVEAEVAQPKLYQRGEGGNGMEPIPEDVLNEALNA, in data set [7], the not cleaved entry is listed as “no evidence of even partial cleavage”.

As for `CC[C@H](C)[C@H](NC(=O)[C@@H]1CCCN1C(=O)[C@H](CCC(=O)O)NC(=O)[C@H](CCSC)NC(=O)CNC(=O)[C@H](CC(N)=O)NC(=O)CNC(=O)CNC(=O)[C@H](CCC(=O)O)NC(=O)CNC(=O)[C@H](CCCNC(=N)N)NC(=O)[C@H](CCC(N)=O)NC(=O)[C@H](Cc1ccc(O)cc1)NC(=O)[C@H](CC(C)C)NC(=O)[C@H](CCCCN)NC(=O)[C@@H]1CCCN1C(=O)[C@H](CCC(N)=O)NC(=O)[C@H](C)NC(=O)[C@@H](NC(=O)[C@H](CCC(=O)O)NC(=O)[C@H](C)NC(=O)[C@H](CCC(=O)O)NC(=O)[C@@H](NC(=O)[C@H](CCC(=O)O)NC(=O)[C@H](CS)NC(=O)[C@H](CCC(=O)O)NC(=O)[C@H](CC(=O)O)NC(=O)[C@H](CC(C)C)NC(=O)[C@H](CC(N)=O)NC(=O)[C@H](CO)NC(=O)[C@H](CCC(N)=O)NC(=O)[C@H](C)NC(=O)[C@@H](NC(=O)[C@H](CCC(=O)O)NC(=O)[C@H](C)NC(=O)[C@H](CCC(=O)O)NC(=O)[C@@H](NC(=O)[C@@H]1CCCN1C(=O)[C@@H](N)CCCCN)C(C)C)C(C)C)C(C)C)C(C)C)C(=O)N1CCC[C@H]1C(=O)N[C@@H](CCC(=O)O)C(=O)N[C@@H](CC(=O)O)C(=O)N[C@H](C(=O)N[C@@H](CC(C)C)C(=O)N[C@@H](CC(N)=O)C(=O)N[C@@H](CCC(=O)O)C(=O)N[C@@H](C)C(=O)N[C@@H](CC(C)C)C(=O)N[C@@H](CC(N)=O)C(=O)N[C@@H](C)C(=O)O)C(C)C` [XC-42], in data set [1], the “dissociation constants on immobilized thrombin, SPR (in words)” value was “elevated dissociation constants”. Also, the “cleavage by thrombin in solution (in words)” value in data set [2] is listed as “majority of the peptide was uncleaved; also recorded: cleaved to a relatively small degree”.

For heparin, the “increase of ex vivo aPTT in relation to PBS-treated animals” value in data set [8] is “twofold”.

(Values after publication PMC8573170 (The Journal of Biological Chemistry, 2021).)
